Experimental data from US20260001871A1, “TRIAZOLE DERIVATIVES AS MODULATORS OF MAS-RELATED G-PROTEIN RECEPTOR D” (ESCIENT PHARMACEUTICALS, INC., priority 2022, published 2026).

Target: human MRGPRD (Homo sapiens, UniProt Q8TDS7)
Assay: MRGPRD antagonist activity, IP-One HTRF assay in CHO cells stably expressing human MRGPRD (versus 100 μM β-Alanine agonist)
Assay type: cell-based
Protocol: Chinese Hamster Ovary (CHO) cells stably expressing human MRGPRD (Eurofins, San Diego CA) were plated in a 384-well plate at 20,000 cells per well in 12 μL of Optimem (Fisher Scientific 11-058-021). Plates were kept in the incubator at 37° C. overnight. Antagonists were solubilized at a concentration of 10 mM in DMSO, and the agonists were solubilized to stock concentrations of either 50 mM in H2O (β-Alanine) or 10 mM in DMSO (all others) and then diluted in assay buffer (final concentrations of 5.7 mM Tris-HCl, 43 mM NaCl, 50 mM LiCl, pH=8). The concentration of DMSO was normalized across the plate. Antagonists were added to the plate using a Tecan D300 Digital Dispenser at nanoliter/picoliter volumes and 2 μL of agonists in assay buffer were added to each well for a final assay volume of 14 μL. Plates were covered and incubated for 1 h at 37° C. and then for 1 h at room temperature. IP-1 standards and HTRF detection reagents were added according to an IP-One—Gq Kit purchased from Cisbio (part number 621PAPEJ) and incubated in the dark for 1 h at room temperature. Assay plates were read on either a Molecular Devices SpectraMax iD5 plate reader or a BMG ClarioStar plate reader. The HTRF ratio was calculated form the raw data and graphed using GraphPad Prism to calculate IC50 values. Data are expressed as average IC50 values and average percent antagonism calculated as a percent of the maximum efficacy response. For these studies, the variability of the data was assessed by determining the standard error of mean (SEM).
The activity ranges are denoted as follows: “+++++” denotes antagonist activity<100 nM; “++++” denotes antagonist activity between 100 and 500 nM; “+++” denotes activity between 500 and 1000 nM; “++” denotes activity between 1000 and 3000 nM; and “+” denotes activity>3000 nM.

human MRGPRD, sequence (Q8TDS7 whole entry): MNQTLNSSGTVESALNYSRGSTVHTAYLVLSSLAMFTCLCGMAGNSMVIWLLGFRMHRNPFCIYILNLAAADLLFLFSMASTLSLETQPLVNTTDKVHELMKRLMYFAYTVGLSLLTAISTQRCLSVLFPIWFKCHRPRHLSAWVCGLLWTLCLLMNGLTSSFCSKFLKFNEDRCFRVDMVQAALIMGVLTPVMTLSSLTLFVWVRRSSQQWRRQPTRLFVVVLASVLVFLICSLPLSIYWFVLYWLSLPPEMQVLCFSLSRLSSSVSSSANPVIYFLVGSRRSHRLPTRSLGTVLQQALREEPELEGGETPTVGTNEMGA

IC50 [µM] | SMILES
< 0.1 | O=C(Nc1ccncc1)c1nnn(-c2ccc(-c3cnn(Cc4ccccc4)c3)cc2)c1C1CC1 [Compound 7-20]
0.1 to 0.5 | Cc1cc(NC(=O)c2nnn(-c3ccc(-c4ccccc4)cc3F)c2C2CC2)ccn1 [Compound 7-21]
0.1 to 0.5 | N#Cc1ccc(-c2ccc(-n3nnc(C(=O)Nc4ccncc4)c3C3CC3)cc2)cc1F [Compound 7-22]
0.1 to 0.5 | N#CCc1ccc(-c2ccc(-n3nnc(C(=O)Nc4ccncc4)c3C3CC3)cc2)cc1 [Compound 7-23]
0.1 to 0.5 | COc1cc(C#N)ccc1-c1ccc(-n2nnc(C(=O)Nc3ccncc3)c2C2CC2)cc1 [Compound 7-24]
0.1 to 0.5 | O=C(Nc1ccncc1)c1nnn(-c2ccc(-c3cnn4c3CCC4)cc2)c1C1CC1 [Compound 7-25]
0.1 to 0.5 | Cc1c(-c2ccc(-n3nnc(C(=O)Nc4ccncc4)c3C3CC3)cc2)cnn1-c1ccccc1 [Compound 7-26]
0.1 to 0.5 | COc1ccc(-c2ccc(-n3nnc(C(=O)Nc4ccncc4)c3C3CC3)cc2)cc1 [Compound 7-27]
0.1 to 0.5 | O=C(Nc1ccncc1)c1nnn(-c2ccc(-c3ccc(C(F)F)cc3)cc2)c1C1CC1 [Compound 7-28]
0.1 to 0.5 | O=C(Nc1ccncc1)c1nnn(-c2ccc(-c3cnn(Cc4cccs4)c3)cc2)c1C1CC1 [Compound 7-29]
0.1 to 0.5 | N#CCc1cccc(-c2ccc(-n3nnc(C(=O)Nc4ccncc4)c3C3CC3)cc2)c1 [Compound 7-30]
0.1 to 0.5 | Cc1nn2cccnc2c1-c1ccc(-n2nnc(C(=O)Nc3ccncc3)c2C2CC2)cc1 [Compound 7-31]
0.1 to 0.5 | O=C(Nc1ccncc1)c1nnn(-c2ccc(-c3ccoc3)cc2)c1C1CC1 [Compound 7-32]
0.1 to 0.5 | Cc1nn(C)c(C)c1-c1ccc(-n2nnc(C(=O)Nc3ccncc3)c2C2CC2)cc1 [Compound 7-33]
0.1 to 0.5 | COc1ccc(-c2ccc(-n3nnc(C(=O)Nc4ccncc4)c3C3CC3)cc2)c(C)c1 [Compound 7-34]
0.1 to 0.5 | COc1ccc(-c2ccc(-n3nnc(C(=O)Nc4ccncc4)c3C3CC3)cc2)c(F)c1 [Compound 7-35]

IC50 [µM] | SMILES
0.1 to 0.5 | CN(C)c1cccc(-c2ccc(-n3nnc(C(=O)Nc4ccncc4)c3C3CC3)cc2)c1 [Compound 7-36]
0.1 to 0.5 | CC(C)c1cccc(-c2ccc(-n3nnc(C(=O)Nc4ccncc4)c3C3CC3)cc2)c1 [Compound 7-37]
0.1 to 0.5 | Cc1cc(NC(=O)c2nnn(-c3ccc(-c4ccc(C#N)nc4)cc3)c2C2CC2)ccn1 [Compound 7-38]
0.1 to 0.5 | N#Cc1ccc(-c2ccc(-n3nnc(C(=O)Nc4ccncc4)c3C3CC3)cc2)cc1 [Compound 7-39]
0.1 to 0.5 | Cc1noc(C)c1-c1ccc(-n2nnc(C(=O)Nc3ccncc3)c2C2CC2)cc1 [Compound 7-40]
0.1 to 0.5 | O=C(Nc1ccncc1)c1nnn(-c2ccc(-c3cc[nH]n3)cc2)c1C1CC1 [Compound 7-41]
0.1 to 0.5 | CC(=O)c1ccc(-c2ccc(-n3nnc(C(=O)Nc4ccncc4)c3C3CC3)cc2)c(C)c1 [Compound 7-42]
0.1 to 0.5 | CN(C)S(=O)(=O)n1ccc(-c2ccc(-n3nnc(C(=O)Nc4ccncc4)c3C3CC3)cc2)n1 [Compound 7-43]
0.1 to 0.5 | Cc1ccc(-c2ccc(-n3nnc(C(=O)Nc4ccncc4)c3C3CC3)cc2)cc1 [Compound 7-44]
0.1 to 0.5 | Cc1oncc1-c1ccc(-n2nnc(C(=O)Nc3ccncc3)c2C2CC2)cc1 [Compound 7-45]
0.1 to 0.5 | COCc1ccc(-c2ccc(-n3nnc(C(=O)Nc4ccncc4)c3C3CC3)cc2)cc1 [Compound 7-46]
0.1 to 0.5 | Cc1c(-c2ccc(-n3nnc(C(=O)Nc4ccncc4)c3C3CC3)cc2)c(C(F)(F)F)nn1C [Compound 7-47]
0.1 to 0.5 | COc1cc(C#N)ccc1-c1ccc(-n2nnc(C(=O)NCc3ccc(C)nc3)c2C2CC2)cc1 [Compound 7-48]
0.1 to 0.5 | CC(=O)c1ccc(-c2ccc(-n3nnc(C(=O)Nc4ccncc4)c3C3CC3)cc2)cc1 [Compound 7-49]
0.1 to 0.5 | Cc1c(-c2ccc(-n3nnc(C(=O)Nc4ccncc4)c3C3CC3)cc2)cnn1C [Compound 7-50]
